Laboratory results as given in patent publication US20180055844A1 (Celgene Corporation, priority 2011, published 2018).
“And” between values parts separate entries of the source, which are not always exact repeats. Identical values can stand only once. Like-named read-outs stand apart in the source and are kept apart here.

Columns and labels:
[1] = test system: TNFα; test: LPS-induced TNFα; assay type: cell-based
[2] = test system: DoHH-2 cells; test: Cytotoxicity assay (3 day ATP production); assay type: cell-based; settings: Homo sapiens, 72 hours, read-out: DoHH2 (FL) GIC50
Method: (§1) Cells line Farage, DOHH2 and Rec-1 were obtained from American Type Culture Collection (Manassas, Va., USA) Cytotoxicity assays were measured in 3 day ATP production assays as follows: The cells were plated in black/clear-bottom 96-well TC plates (BD Falcon, Cat #353948) at 3000 cells/75 μL (for DoHH-2 and Farage cells) or 6000 cells/75 μL (Rec-1 cells) media per well. […] Plates were then sealed with breathable sealing films (ISC BioExpress, Cat # T-2421-50) and placed in a 37° C., 5% CO2 humidified incubator for 72 hours. In addition, cells were seeded in a separate plate in the same manner as above, 25 μL medium in 1% DMSO was added to each well. This plate was immediately tested in the CellTiter-Glo Luminescent Cell Viability Assay (Promega, Cat # G7572) as 0 time point and the results were used to calculate GIC50 in the Farage and DOHH-2 cell experiments After 72 hours of incubation, 100 μL of CellTiter-Glo reagent were added to each well and incubated at room temperature with gentle shaking for 30 minutes. The plates were then analyzed for luminescence in a TopCount NXT Reader (Packard). Each well was counted for one second. Values for duplicate wells were averaged and then compared to the zero time point DMSO control (0% inhibition) to calculate the percentage inhibition of cell growth. Mean DOHH-2 GIC50 values and Farage GIC50 values were calculated from three experiments. Rec-1 IC50 values were calculated from two experiments.

[3] = test system: Farage cells; test: Cytotoxicity assay (3 day ATP production); assay type: cell-based; settings: 72 hours, read-out: Farage (GCB-DLBCL) GIC50
Method: as §1

[4] = test system: Rec-1 cells; test: Cytotoxicity assay (3 day ATP production); assay type: cell-based; settings: Homo sapiens, Rec1; 72 hours; read-out: REC1 (MCL) IC50
Method: as §1

[5] = test system: DoHH2; test: Cell cycle analysis; assay type: cell-based
Method: (§2) Cells were treated with DMSO or an amount of a compound provided herein for 48 hours. Propidium iodide staining for cell cycle was performed using CycleTEST PLUS (Becton Dickinson) according to manufacturer's protocol. Following staining, cells were analyzed by a FACSCalibur flow cytometer using ModFit LT software (Becton Dickinson).

[6] = test system: WSU-DLCL2; test: Cell cycle analysis; assay type: cell-based
Method: as §2

[7] = test system: NCI-H929 MM xenograft; test: NCI-H929 MM xenograft model; assay type: in vivo; settings: day 19
[8] = Oral pharmacokinetics; assay type: in vivo; settings: SCID mouse
[9] = Oral pharmacokinetics; assay type: in vivo, SD rat
[10] = Pharmacokinetics in monkeys on Day 1 and Day 27; settings: monkey, in vivo; for AUC(0-t): read-out: AUC0-24
[11] = biological target: T1, CRBN (Homo sapiens, UniProt Q96SW2); test: CRBN interaction; assay type: binding; settings: dose-dependent
T1 construct: endogenous in cells; HepG2 hepatocellular carcinoma cells
T1 sequence (Q96SW2 whole entry): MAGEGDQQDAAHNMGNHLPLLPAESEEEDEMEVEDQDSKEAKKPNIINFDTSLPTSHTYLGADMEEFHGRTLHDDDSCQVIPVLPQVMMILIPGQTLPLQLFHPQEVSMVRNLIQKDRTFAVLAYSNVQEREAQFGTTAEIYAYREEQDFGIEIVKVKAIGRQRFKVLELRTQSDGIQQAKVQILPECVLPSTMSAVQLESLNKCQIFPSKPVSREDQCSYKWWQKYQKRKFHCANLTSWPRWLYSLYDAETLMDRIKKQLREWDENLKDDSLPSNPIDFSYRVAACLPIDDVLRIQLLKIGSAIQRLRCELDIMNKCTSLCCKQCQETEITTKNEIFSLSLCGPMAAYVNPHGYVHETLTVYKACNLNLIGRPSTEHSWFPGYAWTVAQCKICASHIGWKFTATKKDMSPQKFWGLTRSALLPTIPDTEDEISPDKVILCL

[12] = test system: multiple myeloma (MM) cell lines; test: Inhibition of MM cell proliferation; assay type: cell-based
Method: The ability of compounds to effect the proliferation of MM cell lines was investigated in an in vitro study. Uptake of [^3H]-thymidine by H929 MM cells and 7-AAD uptake in several MM cell lines (H929, U266B1, Anbl-6, KMS-34, OPM-2, DF-15, DF15/R, CAG, MM1.S and LP-1) was measured as an indicator of cell proliferation. Cells were incubated in the presence of compounds for 72 hours ([^3H]-thymidine was included for the last 6 hours of the incubation period) or 5 days followed by 7-AAD uptake to measure and count viable cells.

[13] = test system: SF-295; test: Invasion of solid tumor cells; assay type: cell-based; settings: Homo sapiens; SF-295 (PDGF), glioblastoma
[14] = test system: HCT15; test: Solid tumor cell colony formation; assay type: cell-based; settings: Homo sapiens, HCT-15
[15] = test system: Colo-205; test: Solid tumor cell colony formation; assay type: cell-based; settings: Homo sapiens
[16] = test system: SF295; test: Solid tumor cell colony formation; assay type: cell-based; settings: Homo sapiens, SF-295
[17] = test system: U251; test: Solid tumor cell colony formation; assay type: cell-based; settings: Homo sapiens, U-251
[18] = plasma, 30 mg/kg, SD rat, 30 mpk po
[19] = female, 0.15 mg/kg, Day 1, 0.15 mg/kg, female
[20] = female, 0.15 mg/kg, Day 27, 0.15 mg/kg, female
[21] = female, 1.5 mg/kg, Day 1, 1.5 mg/kg, female
[22] = female, 1.5 mg/kg, Day 27, 1.5 mg/kg, female
[23] = female, 15 mg/kg, Day 1, 15 mg/kg, female
[24] = female, 15 mg/kg, Day 27, 15 mg/kg, female
[25] = male, 0.15 mg/kg, Day 1, 0.15 mg/kg, male
[26] = male, 0.15 mg/kg, Day 27, 0.15 mg/kg, male
[27] = male, 1.5 mg/kg, Day 1, 1.5 mg/kg, male
[28] = male, 1.5 mg/kg, Day 27, 1.5 mg/kg, male
[29] = male, 15 mg/kg, Day 1, 15 mg/kg, male
[30] = male, 15 mg/kg, Day 27, 15 mg/kg, male

Cc1nc2cccc(N)c2c(=O)n1C1CCC(=O)NC1=O (centres unmarked) [compound of Formula I, 3-(5-amino-2-methyl-4-oxo-4H-quinazolin-3-yl)-piperidine-2,6-dione]
IC50 [1]: 17 nM | IC50 [2]: 610 nM | IC50 [3]: 700 nM | IC50 [4]: 470 nM | G1 arrest [5]: induced G1 arrest | G1 arrest [6]: induced G1 arrest | tumor growth inhibition ([7]; 0.3 mg/kg): 59% | tumor growth inhibition ([7]; 3 mg/kg): 73% | tumor growth inhibition ([7]; 30 mg/kg): 93% | AUC ([8]; in vivo, 3 mg/kg, 3 mpk po): 7100 ng·h/mL and 25 µM·h | Cmax ([8]; in vivo, 3 mg/kg, 3 mpk po): 2900 ng/mL and 10 µM | Exposures (AUC(0-t)) versus dose ([8]; up to 30 mg/kg): increased in a dose proportional manner | F ([9]; SD rat, 30 mpk po): 53% | AUC [9, 18]: 25000 ng·h/mL and 87 µM·h | Cmax [9, 18]: 4800 ng/mL and 17 µM | half-life ([9]; plasma, oral, 30 mpk, SD rat): 2.7 h | clearance ([9]; plasma, SD rat, read-out: CLp): 11 mL/min/kg | Exposures (AUC(0-t)) versus dose ([9]; up to 30 mg/kg, CD-IDS rat): increased in a dose proportional manner | Cmax [10, 19]: 63 ng/mL | Tmax [10, 19]: 2 h | AUC(0-t) [10, 19]: 450 ng·h/mL | Cmax [10, 20]: 57 ng/mL | Tmax [10, 20]: 2 to 4 h | AUC(0-t) [10, 20]: 450 ng·h/mL | Cmax [10, 21]: 680 ng/mL | Tmax [10, 21]: 2 h | AUC(0-t) [10, 21]: 4100 ng·h/mL | Cmax [10, 22]: 590 ng/mL | Tmax [10, 22]: 0.5 to 2 h | AUC(0-t) [10, 22]: 4200 ng·h/mL | Cmax [10, 23]: 4200 ng/mL | Tmax [10, 23]: 2 to 4 h | AUC(0-t) [10, 23]: 38000 ng·h/mL | Cmax [10, 24]: 7000 ng/mL | Tmax [10, 24]: 4 h | AUC(0-t) [10, 24]: 75000 ng·h/mL | Cmax [10, 25]: 36 ng/mL | Tmax [10, 25]: 2 to 4 h | AUC(0-t) [10, 25]: 430 ng·h/mL | Cmax [10, 26]: 53 ng/mL | Tmax [10, 26]: 4 h | AUC(0-t) [10, 26]: 570 ng·h/mL | Cmax [10, 27]: 510 ng/mL | Tmax [10, 27]: 2 to 4 h | AUC(0-t) [10, 27]: 4600 ng·h/mL | Cmax [10, 28]: 560 ng/mL | Tmax [10, 28]: 2 h | AUC(0-t) [10, 28]: 5700 ng·h/mL | Cmax [10, 29]: 4100 ng/mL | Tmax [10, 29]: 4 h | AUC(0-t) [10, 29]: 51000 ng·h/mL | Cmax [10, 30]: 5800 ng/mL | Tmax [10, 30]: 2 to 4 h | AUC(0-t) [10, 30]: 72000 ng·h/mL | interaction with HepG2 HCC CRBN [11]: interacts | interaction with endogenous myeloma CRBN [11]: interact | MM cell proliferation in a number of cell lines [12]: inhibit MM cell proliferation | IC50 [13]: 240 nM | inhibition at 10 µM [14]: 3% | inhibition at 10 µM [15]: 17% | inhibition at 10 µM [16]: 12.9% | inhibition at 10 µM [17]: -6%
